One may read the Ki as a measure of affinity in units of concentration, obtained from inhibition or displacement. One may read the Kb as the affinity of an antagonist, worked out from how it opposes an agonist.

One assay concerns the target T1, human 5-HT6 receptor (Homo sapiens, UniProt P50406).
T1 construct: expressed in transfected cells; host or cells: HEK293
The experiment in a line: radioligand binding, [3H]-LSD displacement at 5-HT6R in HEK293 cells. The following applies: HEK-293 cells, ± SEM. The method, then: All experiments were performed using HEK293 cells stably expressing human 5-HT1A, 5-HT6, 5-HT7b, and D2L receptors or CHO-K1 cells with a plasmid containing the human 5-HT2A receptor coding sequence (PerkinElmer, Waltham, MA, USA), according to previously reported procedures. Cells were cultured in 150 cm^2 flasks and, after reaching a 90% confluence, were washed with PBS and the centrifugated (200 g) in PBS containing 0.1 mM EDTA and 1 mM dithiothreitol. Cell pellets were subsequently homogenized (in Ultra Turrax tissue homogenizer) and centrifugated twice (35,000× g for 15 min at 4 °C), with 15 min incubation at 37 °C between the centrifugations. All assays were incubated in dedicated buffers and in a total volume of 200 µL in 96-well microtitre plates for 1 h at 37 °C, except for 5-HT1AR and 5-HT2AR that was incubated for 1 h at room temperature. The process of equilibration is terminated by rapid filtration through Unifilter-96 (PerkinElmer) plates with a 96-well cell harvester and radioactivity retained on the filters was quantified on a Microbeta plate reader (PerkinElmer, USA). For displacement studies, the following assay samples containing the proper radioligand were used: 2.5 nM [^3H]-8-OH-DPAT (PerkinElmer, #NET929001MC) for 5-HT1AR; 1 nM [^3H]-ketanserin (PerkinElmer, #NET791250UC) for 5-HT2AR; 2 nM [^3H]-LSD (PerkinElmer, #NET638250UC) for 5-HT6R; and 0.8 nM [^3H]-5-CT (PerkinElmer, #NET1188U100UC) for 5-HT7R or 2.5 nM [^3H]-raclopride (PerkinElmer, #NET975001MC) for D2LR. Non-specific binding was determined using 10 μM 5-HT for 5-HT1AR and 5-HT7R, 20 μM mianserin for 5-HT2AR, 10 μM methiothepine for 5-HT6R, and 10 μM haloperidol for D2LR. […] Results were expressed as means of at least three separate experiments.

A further assay concerns the target T2, α2B-adrenergic receptor (Homo sapiens, UniProt P18089).
T2 sequence (P18089 1-450): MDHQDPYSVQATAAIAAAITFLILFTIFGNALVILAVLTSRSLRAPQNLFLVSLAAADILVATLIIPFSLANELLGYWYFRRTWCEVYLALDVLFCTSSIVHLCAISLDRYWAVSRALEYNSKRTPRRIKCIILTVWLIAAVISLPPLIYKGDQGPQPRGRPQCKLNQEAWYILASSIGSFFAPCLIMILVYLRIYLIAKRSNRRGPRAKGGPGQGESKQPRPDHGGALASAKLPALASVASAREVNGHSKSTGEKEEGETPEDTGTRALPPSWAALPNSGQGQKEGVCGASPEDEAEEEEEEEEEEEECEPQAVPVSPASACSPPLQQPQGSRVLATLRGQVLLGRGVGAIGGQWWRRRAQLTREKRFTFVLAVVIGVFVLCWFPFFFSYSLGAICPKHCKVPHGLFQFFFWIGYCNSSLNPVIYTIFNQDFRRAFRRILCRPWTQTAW
The experiment in a line: intrinsic activity (antagonist) assay, α2B AequoScreen cell line, aequorin calcium mobilization. The assay is classed as cell-based. The following applies: AequoScreen cells, ± SEM, two independent experiments. The method, then: The intrinsic activity assays for the α2B-adrenergic receptor were assessed by luminescence detection of calcium mobilization using the recombinant expressed jellyfish photoprotein, aequorin. Measurements were performed with adrenergic α2B AequoScreen cell line (PekinElmer). The cell density in 96-well format measurements was 5000 cells per well. Cell harvesting, coelenterazine h (Invitrogen, cat. no. C 6780) loading and preparation were done according to instructions presented in the AequoScreen Starter Kit Manual (PerkinElmer). Compound concentration series (50 μL/well) were diluted in 0.1% BSA (Intergen) containing assay buffer (D-MEM/F-12, Invitrogen cat. no. 11039) and prepared in white ½ Area Plate–96 well microplates (PerkinElmer,). The cell suspension was dispensed on the ligands using the POLARstar optima reader injectors. For the antagonist assay, cells were injected (50 μL) into the assay plate with antagonists (50 μL) using the POLARstar optima reader. The antagonist dilution series with four replicates were prepared as instructed in the AequoScreen Starter Kit Manual at the concentrations from 10^–11 to 10^–6 M/L. The agonist used for […] was Oxymetazoline (Sigma, cat. no. O2378), which at a single concentration was injected (50 μL, final concentration EC80) on the preincubated (15–20 min) mixture of cells and antagonist, and the emitted light was recorded for 20 s.
In general terms: A change in cytosolic calcium serves as a functional read-out for many receptors and channels.

The structures appear in SMILES notation.

T1 sequence (P50406 whole entry): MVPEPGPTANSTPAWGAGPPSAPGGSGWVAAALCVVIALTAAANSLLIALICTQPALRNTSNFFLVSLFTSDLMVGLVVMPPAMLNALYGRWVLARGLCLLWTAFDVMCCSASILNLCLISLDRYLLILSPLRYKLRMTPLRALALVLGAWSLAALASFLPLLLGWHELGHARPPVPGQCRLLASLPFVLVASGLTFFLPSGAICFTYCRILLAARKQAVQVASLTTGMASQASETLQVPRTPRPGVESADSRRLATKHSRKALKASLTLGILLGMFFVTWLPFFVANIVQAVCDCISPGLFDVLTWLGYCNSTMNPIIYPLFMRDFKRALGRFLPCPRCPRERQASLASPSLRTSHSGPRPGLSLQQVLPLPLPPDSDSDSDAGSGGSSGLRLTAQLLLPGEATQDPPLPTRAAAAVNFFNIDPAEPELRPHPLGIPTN

With `CC1(C)Cc2cccc(OCCN3CCC(NS(=O)(=O)c4ccc(F)cc4)CC3)c2O1` [Compound 6, 4-Fluoro-N-{1-[2-(2,2-dimethyl-2,3-dihydrobenzofuran-7-yloxy)ethyl]piperidin-4-yl} benzenesulfonamide], the Ki at human 5-HT6 receptor was 839 ± 70 nM. In addition, at α2B-adrenergic receptor, the Kb amounted to 103 ± 25 nM.

At human 5-HT6 receptor, `CC1(C)Cc2cccc(OCCN3CCC(NS(=O)(=O)c4cc(Cl)ccc4F)CC3)c2O1` [Compound 8, 5-Chloro-2-fluoro-N-{1-[2-(2,2-dimethyl-2,3-dihydrobenzofuran-7-yloxy)ethyl]piperidin-4-yl}benzenesulfonamide] yielded a Ki of 873 ± 91 nM. Also, the Kb on α2B-adrenergic receptor was found to be 142 ± 31 nM.

For the compound `CC1(C)Cc2cccc(OCCN3CCC(NS(=O)(=O)c4cncc5ccccc45)CC3)c2O1` [Compound 13, 4-Isoquinoline-N-{1-[2-(2,2-dimethyl-2,3-dihydrobenzofuran-7-yloxy)ethyl]piperidin-4-yl}sulfonamide], affinity at human 5-HT6 receptor was put at a Ki of 1120 ± 114 nM. For the same compound, on α2B-adrenergic receptor, the Kb was 27 ± 13 nM.

The record behind these values is article PMC8270334, “Design, Sustainable Synthesis and Biological Evaluation of a Novel Dual α2A/5-HT7 Receptor Antagonist with Antidepressant-Like Properties” (Molecules, 2021).
